Measurements: PMC7399337, “Biological Properties and Absolute Configuration of Flavanones From Calceolaria thyrsiflora Graham” (Frontiers in Pharmacology, 2020)

Legend:
P. cinnamomi = test: In vitro fungicidal activity, radial mycelial growth test on PDA; type: cell-based, Phytophtora cinnamomi; details: Phytophthora cinnamomi, 120 h, read-out: Percentage of inhibition on in vitro mycelial growth of P. cinnamomi; for inhibition at 50 µg/mL: 50 mg/L; for inhibition at 150 µg/mL: 150 mg/L; for inhibition at 250 µg/mL: 250 mg/L
Method: A strain of Botrytis cinerea isolated from a naturally infected grape (Vitis vinifera) was used in all experiments. Isolated Phytophtora cinnamomi was provided by the Agricultural and Livestock Service of Valparaíso. Both strains were maintained on a potato dextrose agar (PDA) medium (DIFCO, Detroit, MI) at 4°C. The inoculum of both pathogens was grown on PDA and incubates in dark at 23°C for 5 days in the case of B. cinerea and 8 days for P. cinnamomi.
The fungicidal activity of flavanones, extracts, the negative control (C-) composed of solvent (1% ethanol), and the positive control (C+, commercial fungicide Captan® and metalaxil® for B. cinerea and P. cinnamomi, respectively) were assessed using the radial growth test technique on PDA medium as described ([Taborga et al., 2015]). All test samples were dissolved in ethanol (1%) and water, to obtain final concentrations of 50, 150, and 250 mg/L in the PDA medium. A plug (4 mm) of PDA medium with five-day-old mycelium colonies of the pathogen was placed at the center of a Petri dish with PDA medium with or without studied test samples and were incubated at 23°C in dark for 72 h (B. cinerea) and 120 h (P. cinnamomi). After incubation, the diameters of colonies were measured and the inhibition percentage was calculated as the average of three replicas compared to C-.

[1] = system: B16-F10 mouse metastatic melanoma cells; test: In vitro cytotoxic activity, CyQuant cell viability, 72 h; type: cell-based; details: for CC50: Mus musculus, B16-F10, 72 h, read-out: LC50 ± SD
Method: Cell viability was measured using a CyQuant® Direct Cell Proliferation Assay Kit (Life Technologies, Grand Island, NY, USA) following the manufacturer’s instruction. Briefly, 5,000 cells per well were seeded onto a flat-bottom 96-well plate in 200 μL final volume. Six hours after seeding, the culture medium was replaced by the medium containing the tested compounds at 0.01 to 100 µM concentrations in DMSO (0.1% final concentration) during 72 h. Untreated cells (medium containing only 0.1% DMSO) were used as controls. At the end of the incubation, 100 μL of culture medium was removed from each well and replaced by detection reagent solution provided by the kit (which is a 1:5 mixture of the reagent CyQUANT®, direct nucleic acid stain and the reagent labeled as CyQUANT® direct background suppressor I). […] At least four independent experiments were performed for each concentration.

15-sLOX = target: T1, 15-sLOX (Glycine max, UniProt P08170); test: In vitro 15-sLOX enzyme assay (absorbance at 234 nm); type: biochemical; details: Flavanones at 10 µM (table footnote); method: 5 µg/ml
T1 construct: purchased Cayman Chemical Item No. 60712
T1 sequence (P08170 1-839): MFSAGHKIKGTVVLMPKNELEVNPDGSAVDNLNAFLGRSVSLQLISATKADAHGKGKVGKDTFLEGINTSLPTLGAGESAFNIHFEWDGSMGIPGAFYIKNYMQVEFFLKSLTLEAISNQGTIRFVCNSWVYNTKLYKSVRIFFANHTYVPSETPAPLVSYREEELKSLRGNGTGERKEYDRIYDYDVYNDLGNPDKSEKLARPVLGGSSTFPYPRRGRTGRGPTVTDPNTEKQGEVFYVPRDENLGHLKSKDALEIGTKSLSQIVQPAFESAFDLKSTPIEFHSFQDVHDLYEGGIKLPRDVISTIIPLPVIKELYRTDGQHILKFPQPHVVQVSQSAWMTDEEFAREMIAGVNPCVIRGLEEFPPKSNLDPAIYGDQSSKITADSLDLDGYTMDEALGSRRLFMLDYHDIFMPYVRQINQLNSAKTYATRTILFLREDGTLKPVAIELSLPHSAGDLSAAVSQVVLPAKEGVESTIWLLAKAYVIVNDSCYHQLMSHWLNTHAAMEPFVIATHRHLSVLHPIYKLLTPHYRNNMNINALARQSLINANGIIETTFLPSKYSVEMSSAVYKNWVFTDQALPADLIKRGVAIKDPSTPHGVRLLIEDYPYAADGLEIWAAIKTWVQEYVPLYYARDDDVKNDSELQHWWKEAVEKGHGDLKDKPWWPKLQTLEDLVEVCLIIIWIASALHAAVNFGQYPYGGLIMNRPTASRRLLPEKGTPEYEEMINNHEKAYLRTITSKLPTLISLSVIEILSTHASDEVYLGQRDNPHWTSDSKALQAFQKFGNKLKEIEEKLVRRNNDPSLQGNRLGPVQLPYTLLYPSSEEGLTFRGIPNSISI
Method: The activity of 15-sLOX (Cayman Chemical Item No. 60712) was determined following the formation of reaction products at 234 nm (ϵ = 25,000 M^-1 cm^-1) in a Perkin-Elmer Lambda 25 UV/Vis spectrophotometer. All reactions were performed at a final volume of 2 ml and were constantly stirred using a magnetic bar at room temperature. The reaction medium used contained 25 mM HEPES buffer (pH 7.4), Triton X-100 0.01%, and the arachidonic acid (AA) substrate at a 10 µM concentration determine preliminary percent inhibition (%I). AA concentration was determined quantitatively by allowing the enzymatic reaction to go to completion. The reaction was carried out by adding the inhibitor dissolved in DMSO (5 µg/ml in the reaction medium) to the bucket with the substrate buffer, and finally the enzyme was added. Assays were performed in duplicate on three different days. GraphPad Prism Demo V.7 performed the graphics for IC50 and kinetics studies ([GraphPad-Software-Inc., 2017]).

COc1cc(O)c2c(c1)O[C@H](c1ccc(O)cc1)CC2=O [Compound 1, (-)-(2S)-5,4’-dihydroxy-7-methoxyflavanone]
inhibition at 50 µg/mL (P. cinnamomi): 0% | inhibition at 150 µg/mL (P. cinnamomi): 0% | inhibition at 250 µg/mL (P. cinnamomi): 0% | LC50 ± SD ([1]; B16-F10, 72 h): no significant cytotoxic activity | CC50 [1]: 72 ± 7.16 µM | inhibition at 10 µM (15-sLOX): 7 ± 3.12%

COc1cc(O)c2c(c1)O[C@H](c1ccc(O)c(O)c1)CC2=O [Compound 2, (-)-(2S)-5,3’,4’-trihydroxy-7-methoxyflavanone]
inhibition at 50 µg/mL (P. cinnamomi): 0% | inhibition at 150 µg/mL (P. cinnamomi): 33 ± 5.8% | inhibition at 250 µg/mL (P. cinnamomi): 42 ± 5.3% | fold less cytotoxic activity against B16-F10 than etoposide ([1]; B16-F10): 4.6 fold | fold less cytotoxic activity against B16-F10 than taxol ([1]; B16-F10): 17 fold | selectivity towards B16-F10 as compared to non-cancerous cells (MEF) ([1]; LC50 MEF versus B16-F10): 4 fold | CC50 [1]: 8.07 ± 1.61 µM | inhibition at 10 µM (15-sLOX): 26 ± 3.96%
